Assay results reported in EP4454666A1, “IN VIVO IMAGING OF AN ALS BIOMARKER AND MEANS THEREFOR” (Société de Commercialisation des Produits de la Recherche …, priority 2023, dated 2024).

What was measured:
[1] = test system: mSOD1 aggregates; assay: PET imaging of spinal cord mSOD1 aggregates (spots); type: in vivo, mice
Description: Under isoflurane anesthesia. […] Imaging days post administration of the radiotracer were optimized as the first results were collected the last groups being imaged only at days 7 and 10. Once the radiotracer administrated, the mouse was placed in its cage to recuperate from anesthesia and returned to the housing facility.
PET imaging was performed on days 7 and 10 following the administration of the radiotracer. Imaging was done on a LabPET-2 PET scanner (https://imagingrt.com/. Bore size: 72 mm. Axial FOV: 50 mm. Transaxial FOV: 60 mm. Spatial resolution: 0.74 mm (Isotropic at 5 mm from center). Detection efficiency (250-650 keV): 3.3% dedicated to small animal imaging. Preparation and PET imaging was done under isoflurane anesthesia delivered through a nose cone (Induction 2-3% isoflurane then 1 - 2.5%. 1-1.5 L of oxygen/min) the level of anesthesia being modulated if required during PET imaging. An ophthalmic gel was applied to the eyes to prevent eye dryness. The mouse was positioned within the field of view of the PET imager and a 30 min static acquisition was performed then the bed of the imager was moved within the CT module of the LabPET8 scanner, and a 2 min CT acquisition was performed. During PET imaging, the mouse was kept warm using pulsed hot air maintained at 32 °C, the environment temperature and respiration rate being monitored throughout the imaging procedure (PCSAM. Model 1025T Monitoring & Gating System, SA Instruments Inc.). Once the imaging procedure was completed, the mouse was placed in its cage to recuperate from anesthesia and returned to the housing facility.
PET data were acquired in list mode and reconstructed on a 200 x 200 x 168 grid with 0.3 x 0.3 x 0.3 mm^3 voxel size using 16 iterations and 8 subset of the 3D Ordered Subset Expectation Maximization (OSEM) algorithm. All PET images were corrected for the physical radionuclide decay of ^89Zr and random coincidences. […]
Once reconstructed the PET images were visually inspected to identify potential mSOD1 aggregates, which appear as discrete radiotracer spots within the spinal cord. […] The criteria for validity were that the spot was well defined within the spinal cord and not contaminated by radioactivity spilled in form the presence of the radiotracer in the anterior portion of the vertebra. […]
Once located region of interest (ROI) was then traced around these spots and the measure radiotracer content corrected for the partial volume effect (PVE) using the recovery coefficient and for spill-in from the presence of free ^89Zr in the anterior part of the vertebra (Fig. 4). […] The radioactivity content of m-SOD1 aggregated was expressed in terms of %ID/g.

[2] = target: T1, denatured human SOD1 (human, UniProt P00441 2-154); assay: direct ELISA on denatured human SOD1 (Fig. 6A)
T1 construct: also called misfolded SOD1; mSOD1

[3] = target: T1, denatured human SOD1; assay: direct ELISA on denatured human SOD1 (mSOD1)
[4] = target: T1, denatured human SOD1; assay: ELISA on misfolded SOD1 (refers to Fig. 6)

T1 sequence (P00441 2-154 limits assumed): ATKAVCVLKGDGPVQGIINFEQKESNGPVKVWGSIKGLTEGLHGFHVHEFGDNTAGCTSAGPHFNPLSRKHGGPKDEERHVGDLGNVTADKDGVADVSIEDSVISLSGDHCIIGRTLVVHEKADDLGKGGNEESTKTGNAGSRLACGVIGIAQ

Row | EC50 [3] [nM] | Molecule | number of detected spots including false positive spots ([1]; day 7 post administration) [spots] | number of detected spots including false positive spots ([1]; day 10 post administration) [spots] | other results
1 | 2.4 | Degly-^natZr-DFO-AP-101 (antibody, human IgG1, V domains shown, DFO chelator conjugated randomly on lysine residues; Fc N-glycans removed with EndoS2 (GlycINATOR); DFO chelator on lysine residues, average 0.6 DFO per antibody; natZr complexed) VH: EVQLVESGAEVKKPGASVTLSCKASGYTFTAYYIHWVRQAREQGLEWMGVINPSTGTTFYAQNFPDRVSVTRDTSTSTVFMELHNLKSEDTAVYYCARAISEHGSGSYSPYYWGQGTLVTVSS VL: SYVLTQPPSVSVSLGQMAAITCSGEALPKKYGYWYQQKPGQVPVLLIYRDVERPSGVPDRFSGSSSGTMVTLTISGVQAEDEADYYCLSADSSGTWVFGGGTKLTVL |  |  | 
2 | 0.3 | ^natZr-DFO-AP-101 (antibody, human IgG1, V domains shown, p-SCN-Bn desferoxamine (DFO) chelator conjugated randomly on lysine residues; p-SCN-Bn desferoxamine (DFO) chelator conjugated randomly on lysine residues, DFO:AP-101 ratio 1.1:1.0; natZr complexed, also called DFO-α-miSOD1) VH: EVQLVESGAEVKKPGASVTLSCKASGYTFTAYYIHWVRQAREQGLEWMGVINPSTGTTFYAQNFPDRVSVTRDTSTSTVFMELHNLKSEDTAVYYCARAISEHGSGSYSPYYWGQGTLVTVSS VL: SYVLTQPPSVSVSLGQMAAITCSGEALPKKYGYWYQQKPGQVPVLLIYRDVERPSGVPDRFSGSSSGTMVTLTISGVQAEDEADYYCLSADSSGTWVFGGGTKLTVL |  |  | EC50 [4]: 0.5 nM

Continued, molecule first:

Row | Molecule | EC50 [3] [nM] | number of detected spots including false positive spots ([1]; day 7 post administration) [spots] | number of detected spots including false positive spots ([1]; day 10 post administration) [spots] | other results
3 | Degly-^89Zr-DFO-AP-101: ^89Zr-DFO-AP-101 in which the AP-101 antibody is deglycosylated |  | 6 | 12 | 
4 | ^89Zr-DFO-AP-101: AP-101 antibody, SCN-Bn-DFO as bifunctional chelator and ^89Zr as radionuclide; PET radiotracer |  | 6 | 18 | 
5 | AP-101 (antibody, V domains shown) VH: EVQLVESGAEVKKPGASVTLSCKASGYTFTAYYIHWVRQAREQGLEWMGVINPSTGTTFYAQNFPDRVSVTRDTSTSTVFMELHNLKSEDTAVYYCARAISEHGSGSYSPYYWGQGTLVTVSS VL: SYVLTQPPSVSVSLGQMAAITCSGEALPKKYGYWYQQKPGQVPVLLIYRDVERPSGVPDRFSGSSSGTMVTLTISGVQAEDEADYYCLSADSSGTWVFGGGTKLTVL |  |  |  | EC50 [2]: 0.2 nM
